From patent publication US20100179188A1, “NITROXIDE RADICAL AS TREATMENT FOR NEURODEGENERATION” (Office of Technology Transfer, NIH, priority 2007, published 2010)

How the values were obtained:
Format in all cases: in vivo
IRP1 = target: T1, IRP1 (Mus musculus, UniProt P28271); test: IRE binding activity of IRP1 in brain-region lysates of IRP2−/− mice (gel-shift); set-up: Lysates made from various brain regions of IRP2−/− mice; from tissue; host or cells: mouse brain (cerebellum, forebrain, brain-stem) lysates; settings: lysates from cerebellum, brain-stem and forebrain of IRP2−/− mice, Tempo1 diet vs control diet
T1 sequence (P28271 1-889): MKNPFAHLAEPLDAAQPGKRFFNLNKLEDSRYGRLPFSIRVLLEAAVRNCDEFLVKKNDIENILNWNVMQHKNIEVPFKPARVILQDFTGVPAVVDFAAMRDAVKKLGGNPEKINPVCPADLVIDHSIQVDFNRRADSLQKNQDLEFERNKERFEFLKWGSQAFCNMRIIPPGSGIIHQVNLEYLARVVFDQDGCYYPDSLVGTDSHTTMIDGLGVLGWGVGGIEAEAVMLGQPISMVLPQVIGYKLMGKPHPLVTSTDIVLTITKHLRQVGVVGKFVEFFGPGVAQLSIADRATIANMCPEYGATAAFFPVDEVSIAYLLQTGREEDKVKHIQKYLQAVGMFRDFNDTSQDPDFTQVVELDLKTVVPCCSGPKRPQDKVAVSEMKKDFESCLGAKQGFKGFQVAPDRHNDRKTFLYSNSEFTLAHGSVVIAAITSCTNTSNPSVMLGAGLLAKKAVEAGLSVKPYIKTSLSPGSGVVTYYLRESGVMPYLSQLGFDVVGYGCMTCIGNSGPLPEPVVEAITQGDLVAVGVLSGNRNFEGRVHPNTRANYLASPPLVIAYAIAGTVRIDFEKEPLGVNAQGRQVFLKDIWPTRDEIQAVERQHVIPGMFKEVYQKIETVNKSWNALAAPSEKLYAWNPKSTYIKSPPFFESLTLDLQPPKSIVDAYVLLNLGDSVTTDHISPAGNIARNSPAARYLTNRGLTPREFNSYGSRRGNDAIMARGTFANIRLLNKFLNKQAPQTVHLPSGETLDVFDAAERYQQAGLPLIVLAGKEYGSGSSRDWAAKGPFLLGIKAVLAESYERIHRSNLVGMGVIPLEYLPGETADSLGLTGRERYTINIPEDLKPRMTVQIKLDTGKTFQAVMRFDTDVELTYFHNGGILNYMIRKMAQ
Experimental: (§1) Diet: The mice were weaned 3-4 weeks after their birth. Immediately after weaning, mice were maintained on either a Tempo1-supplemented or control diet. In the Tempo1-supplemented diet, powdered Tempo1 was uniformly mixed with bacon-flavored mouse chow by a “cold press” technique (Bio-Serv, Frenchtown, N.J., USA) at a concentration of 10 mg/g of food. Bacon-flavored chow without Tempo1 was used as the control diet.
Tissue and lysate preparation: Animals were euthanized and tissues were frozen in liquid nitrogen immediately after harvesting, and stored at −80° C. under argon. Experiments were performed on tissues that were pulverized in liquid N2-cooled mortars in an anaerobic chamber, and then lysed in lysis buffer that was deaerated by cyclic freezethaw and air-removal with argon. […]
Lysates made from various brain regions of IRP2−/− mice that were maintained on a control diet or on a Tempo1-supplemented diet were analyzed for IRE binding activity of IRP1 and for TfR1, IRP1, and actin protein levels by gel-shift assay and Western blot. […] FIG. 3b is a quantification of the results as intensity of the bands relative to the control, represented here as 100%. Quantification was performed with the IQMac (IRP1 activity) or NIH Image (protein levels) program. Error bars represent the standard deviation calculated from the results of two different sets of animals.

IRP1+/− IRP2−/− mice = test: Hang-test of IRP1+/− IRP2−/− mice on Tempo1-supplemented diet; settings: FIG. 7c
Experimental: as §1
Hang-test: In the hang-test, mice were allowed to grip a wire mesh that was then inverted. The length of time that a mouse could hang on to an inverted wire mesh before falling (up to a maximum of 60 seconds) was measured and recorded.
Hang-test results of WT, IRP2−/− and IRP1+/− IRP2−/− mice that indicated IRP1+/− IRP2−/− animals were more symptomatic than IRP2−/− animals. […] Error bars represent standard error of the mean. The curves were drawn by using the polynomial curve fit of the KaleidaGraph program.

IRP2−/− mice = test: Hematocrit (anemia) of IRP2−/− mice on Tempo1 diet
Experimental: as §1

`CC1(C)CC(O)CC(C)(C)N1[O]` [Tempo1] was tested, and the IRE-binding activity (IRP1) was “markedly increased”, the “prevention of disease progression (hang-test)” value (IRP1+/− IRP2−/− mice) was “did not significantly (p=0.559) prevent” and the hematocrit (IRP2−/− mice; IRP2−/− mice after 8 months of Tempo1 diet (untreated IRP2−/− 46±5, WT 52±2)) was 46±4. The “mild anemia of IRP2−/− mice” value (IRP2−/− mice; IRP2−/− mice treated with Tempo1) was “did not improve”.
